Assay [1] has as its system acetyl-histone H3 (Ac-HH3). Put plainly: Ac-HH3 level in Jurkat cells, Western blot. It counts as cell-based. The conditions noted are these: 6 h. Background: A western blot detects proteins with antibodies after separation by electrophoresis.
A further assay has as its system STAT3. The following applies: 24 h. An excerpt: We also explored a potential by-stander effect of HDAC8 degradation. It has been reported that HDAC8 can form a corepressor complex with STAT3 and release of the HDAC8 corepressor complex can recruit p300, Sp3, and other factors that activate gene transcription in colon cancer HCT116 cells.[20]
In assay [2] the test system is Jurkat cells. In words: Lipid peroxidation detection (BODIPY 581/591 C11), Jurkat. It counts as cell-based. The following applies: 10 μM, 24 h. The method, then: Jurkat cells (5 × 10^5), HCT116 cells (3 × 10^5) and THP-1 cells (5 × 10^5) were seeded on 6-well plates. The next day, cells were treated with indicated concentrations of compounds for 24 or 48 h. Then, cells were stained with 1.3 μM of BODIPY 581/591 C11 (Invitrogen, D3861) for another 1 h at 37 °C. Later, cells were harvested and washed three times with ice-cold PBS, followed by resuspended in FACS buffer (1% BSA in PBS). Lipid peroxidation was determined by NovoCyte Quanteon Flow Cytometer (Agilent Technologies, CA, USA).

A further assay addresses T1, HDAC11 (Homo sapiens, UniProt Q96DB2).
T1 construct: endogenous in cells; host or cells: Jurkat
T1 sequence (Q96DB2 1-347): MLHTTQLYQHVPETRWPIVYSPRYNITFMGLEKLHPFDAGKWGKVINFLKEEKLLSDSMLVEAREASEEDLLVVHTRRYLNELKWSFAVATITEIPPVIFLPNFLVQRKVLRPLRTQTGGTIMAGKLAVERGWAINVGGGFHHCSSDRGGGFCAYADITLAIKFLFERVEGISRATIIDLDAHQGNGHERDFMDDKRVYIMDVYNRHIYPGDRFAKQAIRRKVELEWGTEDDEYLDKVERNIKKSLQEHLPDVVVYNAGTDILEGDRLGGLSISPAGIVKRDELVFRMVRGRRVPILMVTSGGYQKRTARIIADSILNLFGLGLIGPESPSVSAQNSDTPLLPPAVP
Put plainly: HDAC11 level in Jurkat cells, Western blot. The conditions noted are these: 6 h. It counts as cell-based.

The subject of another assay is HEL cells. Put plainly: Cell viability MTS assay, HEL. It counts as cell-based. The following applies: ratio of IC50 values. The protocol:
MTS assay was used to measure the cell viability. For single treatment, Jurkat, THP-1 and HEL (8000 cells/well), HCT116 and A549 (2000 cells/well) were seeded in 96-well plates in 100 μL complete medium. After overnight incubation, 50 μL of media containing various concentrations of compounds or the vehicle were added to each well. For cotreatment, cells were seeded in 96-well plates in 50 μL complete medium. After overnight incubation, 50 μL of Z-VAD-FMK, Nec-1, Fer-1, CQ, and other indicated compounds were added to each well. One hour later, 50 μL of media containing various concentrations of compounds were added to each well. After 72 h of treatment, 20 μL of CellTiter 96 AQueous One Solution reagent (Promega, Madison, USA) was added to each well according to manufacturer’s protocol. Plates were incubated at 37 °C for 1–2 h. The absorbance was determined at a wavelength of 490 nm using a Synergy H1 plate reader (Biotek, Winooski, VT, USA).
(In general: Tetrazolium dyes change colour on reduction, which living cells bring about.)

A further assay deals with T2, HDAC7 (Homo sapiens, UniProt Q8WUI4).
T2 construct: endogenous in cells; host or cells: Jurkat
T2 sequence (Q8WUI4 1-952): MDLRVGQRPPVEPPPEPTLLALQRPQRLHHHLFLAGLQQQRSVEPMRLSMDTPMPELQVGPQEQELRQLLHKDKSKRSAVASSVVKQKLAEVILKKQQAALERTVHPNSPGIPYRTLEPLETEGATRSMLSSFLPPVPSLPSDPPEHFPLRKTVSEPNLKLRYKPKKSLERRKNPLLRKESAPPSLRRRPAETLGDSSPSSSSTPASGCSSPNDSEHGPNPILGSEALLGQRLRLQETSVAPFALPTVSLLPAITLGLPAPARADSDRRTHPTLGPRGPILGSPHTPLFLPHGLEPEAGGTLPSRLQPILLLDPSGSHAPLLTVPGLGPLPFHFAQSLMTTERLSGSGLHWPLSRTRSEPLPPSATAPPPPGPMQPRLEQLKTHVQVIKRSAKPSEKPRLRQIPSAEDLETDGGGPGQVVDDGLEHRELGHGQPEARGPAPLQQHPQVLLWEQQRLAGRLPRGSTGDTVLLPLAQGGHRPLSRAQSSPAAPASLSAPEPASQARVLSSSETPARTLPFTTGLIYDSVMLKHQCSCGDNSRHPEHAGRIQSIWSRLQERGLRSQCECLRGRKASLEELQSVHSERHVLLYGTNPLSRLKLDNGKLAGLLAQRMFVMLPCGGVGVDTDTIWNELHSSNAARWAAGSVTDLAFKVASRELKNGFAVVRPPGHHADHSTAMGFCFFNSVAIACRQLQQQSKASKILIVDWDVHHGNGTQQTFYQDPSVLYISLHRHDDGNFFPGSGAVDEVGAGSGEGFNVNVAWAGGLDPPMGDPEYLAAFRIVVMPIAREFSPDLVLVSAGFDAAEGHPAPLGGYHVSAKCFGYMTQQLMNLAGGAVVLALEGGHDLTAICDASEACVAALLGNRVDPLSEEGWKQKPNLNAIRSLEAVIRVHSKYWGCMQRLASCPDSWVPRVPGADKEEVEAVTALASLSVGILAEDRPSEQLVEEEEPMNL
Put plainly: HDAC7 level in Jurkat cells, Western blot. It counts as cell-based. The conditions noted are these: 6 h.

Assay [3] has as its system acetyl-histone H3 (Ac-HH3). Put plainly: Ac-HH3 level in HCT116 cells, Western blot. It counts as cell-based. The following applies: 6 h.
A further assay relates to HCT116 cells. In words: Cell cycle analysis, HCT116. It counts as cell-based. The conditions noted are these: 48 h, control group 23.0%. The protocol:
(§1) Jurkat cells (5 × 10^5) and HCT116 cells (3 × 10^5) were seeded on 6-well plates. The next day, cells were treated with indicated concentrations of compounds for 48 h. Cells were harvested after incubation, washed twice in cold PBS, centrifuged, and stained with a solution containing 20 μg/mL of Propidium iodide (PI) and 0.1% (v/v) Triton-X100 for 15 min at room temperature, followed by detection with NovoCyte Quanteon Flow Cytometer (Agilent Technologies, CA, USA).

The subject of assay [4] is Jurkat cells. Put plainly: Cell cycle analysis, Jurkat. It counts as cell-based. The conditions noted are these: 48 h, control group 43.5%. The method, then: as §1

The record followed here is paper PMC11345830, “Exploration of Hydrazide-Based HDAC8 PROTACs for the Treatment of Hematological Malignancies and Solid Tumors” (Journal of Medicinal Chemistry, 2024).

Read-outs that look alike come from different tables or passages of the source.

Take `CCCCCCNNC(=O)c1ccc(CNC(=O)CN2CCC(c3ccc(NC4CCC(=O)NC4=O)cc3)CC2)cc1` (stereo not shown) [Z16, 2-(4-(4-((2,6-Dioxopiperidin-3-yl)amino)phenyl)piperidin-1-yl)-N-(4-(2-hexylhydrazine-1-carbonyl)benzyl)acetamide]: the “level of Ac-HH3 at 1 μM (in words)” value in assay [1] was “significantly increase”. Also, the “STAT3 degradation (in words)” value in the assay with STAT3 (HCT116 cells) and with STAT3 (Jurkat cells) was “did not induce STAT3 degradation” throughout. The lipid peroxidation induced entry in the assay with Jurkat cells [2] is on record as “over 40%”. The “HDAC11 degradation (in words)” value on HDAC11 was “no obvious”. In addition, the “less potent than SAHA against HEL cells” value in the assay on HEL cells is recorded as “about 10 fold”. Moreover, the “HDAC7 degradation (in words)” value on HDAC7 is “no obvious”. In addition, the “concentration at which increased acetylation of histone H3 started” value in [3] is 40 nM. For the same molecule, the “proportion of cells at G2/M phase” value in the assay with HCT116 cells (0.13 μM) is 24.1%; in the assay with HCT116 cells (0.37 μM) it was 26.4%; in the assay on HCT116 cells (1.1 μM), 26.2%; in the assay with HCT116 cells (3.3 μM), 38.8%. Further, the “proportion of cells at G0/G1 phase” value with Jurkat cells [4] (0.13 μM) is given as 48.4%; with Jurkat cells [4] (0.37 μM), 52.2%; in the assay on Jurkat cells [4] (1.1 μM), 61%; in the assay on Jurkat cells [4] (3.3 μM), 68.2%.
